For assay [1], the target named is T1, Coq8^NΔ41 (Coq8p) (Saccharomyces cerevisiae, UniProt P27697, A197G).
T1 sequence (P27697 42-501 A197G): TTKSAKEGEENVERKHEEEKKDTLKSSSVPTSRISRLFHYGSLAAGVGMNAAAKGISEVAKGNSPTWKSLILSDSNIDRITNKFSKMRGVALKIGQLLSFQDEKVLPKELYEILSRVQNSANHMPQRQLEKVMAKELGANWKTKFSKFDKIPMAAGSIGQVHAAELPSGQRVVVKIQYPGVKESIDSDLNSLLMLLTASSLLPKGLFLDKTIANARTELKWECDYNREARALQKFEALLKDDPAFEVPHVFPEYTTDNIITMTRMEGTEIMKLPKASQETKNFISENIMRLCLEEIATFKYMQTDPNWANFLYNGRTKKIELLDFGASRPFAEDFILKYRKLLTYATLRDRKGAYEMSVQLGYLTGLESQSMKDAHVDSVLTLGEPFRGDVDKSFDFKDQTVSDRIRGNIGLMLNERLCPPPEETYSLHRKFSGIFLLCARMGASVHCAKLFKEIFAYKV
The assay can be described thus: nucleotide binding. The note with it: A-rich loop A-to-G mutant.

In assay [2] the target is T2, MBP-Coq8^NΔ41 (Saccharomyces cerevisiae, UniProt P27697).
T2 sequence (P27697 42-501): T1 sequence (P27697 42-501 A197G) with G156A
The assay can be described thus: co-purification, LC-MS/MS lipidomics. The note with it: co-purified from E. coli; WT compared with mutants. The assay is classed as binding.

Residue numbers refer to the chain shown, from its start.

As for `Nc1ncnc2c1ncn2[C@@H]1O[C@H](COP(=O)(O)OP(=O)(O)O)[C@@H](O)[C@H]1O` [ADP], the “nucleotide binding (method in supplement)” value in assay [1] is listed as “selectivity for ADP over ATP that can be reversed by an A-rich loop A-to-G mutation”. For `CC(C)=CCC/C(C)=C/CC/C(C)=C/CC/C(C)=C/CC/C(C)=C/CC/C(C)=C/CC/C(C)=C/Cc1ccccc1O` [heptaprenylphenol], the “co-purification, LC-MS/MS lipidomics” value in assay [2] was “binding of OHB, OPP, and heptaprenylphenol (HPP) was decreased by Coq8p active site mutations”.

For the origin of these results see paper PMC5012427 (Molecular cell, 2016).
